# In US20220088016A1, “CANCER TREATMENT USING MULTI-TARGETED KINASE INHIBITOR IN COMBINATION OF PROTEIN KINASE BIOMARKERS” (ZHEJIANG CROWNMAB BIOTECH CO. LTD., priority 2019, published 2022):
# Legend:
# CAMK2A = CAMK2A (Homo sapiens, UniProt Q9UQM7); assay: Kinase profiling; format: binding; conditions: read-out: % Ctrl @ 1000 nM
# TGFBR1 = TGFBR1 (Homo sapiens, UniProt P36897); assay: Kinase profiling; format: binding; conditions: read-out: % Ctrl @ 1000 nM
# RIPK1 = RIPK1 (Homo sapiens, UniProt Q13546); assay: Kinase profiling; format: binding; conditions: read-out: % Ctrl @ 1000 nM
# GCN2 (Kin.Dom.2, S808G) = GCN2 (Kin.Dom.2, S808G) (Homo sapiens, UniProt Q9P2K8, S808G); assay: Kinase profiling; format: binding; conditions: read-out: % Ctrl @ 1000 nM
# MEK1 = molecular target: T1, MEK1 (Homo sapiens, UniProt Q02750); assay: Kinase profiling; format: binding; conditions: read-out: % Ctrl @ 1000 nM
# T1 construct: T7 phage fusion (stated for most kinases of the panel only); made in house; host or cells: T7 phage in E. coli (BL21-derived) or HEK-293 cells
# PLK1 = PLK1 (Homo sapiens, UniProt P53350); assay: Kinase profiling; format: binding; conditions: read-out: % Ctrl @ 1000 nM
# CDC2L5 = CDC2L5 (Homo sapiens, UniProt Q14004); assay: Kinase profiling; format: binding; conditions: read-out: % Ctrl @ 1000 nM
# PRKX = PRKX (Homo sapiens, UniProt P51817); assay: Kinase profiling; format: binding; conditions: read-out: % Ctrl @ 1000 nM
# JNK1 = JNK1 (Homo sapiens, UniProt P45983); assay: Kinase profiling; format: binding; conditions: read-out: % Ctrl @ 1000 nM
# DMPK = DMPK (Homo sapiens, UniProt Q09013); assay: Kinase profiling; format: binding; conditions: read-out: % Ctrl @ 1000 nM
# ALK = ALK (Homo sapiens, UniProt Q9UM73); assay: Kinase profiling; format: binding; conditions: read-out: % Ctrl @ 1000 nM
# [1] = molecular target: RPS6KA4 (Kin.Dom.2-C-terminal) (Homo sapiens, UniProt O75676); assay: Kinase profiling; format: binding; conditions: read-out: % Ctrl @ 1000 nM
# FAK = FAK (Homo sapiens, UniProt Q05397); assay: Kinase profiling; format: binding; conditions: read-out: % Ctrl @ 1000 nM
# STK16 = STK16 (Homo sapiens, UniProt O75716); assay: Kinase profiling; format: binding; conditions: read-out: % Ctrl @ 1000 nM
# CSNK1G1 = CSNK1G1 (Homo sapiens, UniProt Q9HCP0); assay: Kinase profiling; format: binding; conditions: read-out: % Ctrl @ 1000 nM
# [2] = molecular target: RSK2 (Kin.Dom.1-N-terminal) (Homo sapiens, UniProt P51812); assay: Kinase profiling; format: binding; conditions: read-out: % Ctrl @ 1000 nM
# PIK4CB = PIK4CB (Homo sapiens, UniProt Q9UBF8); assay: Kinase profiling; format: binding; conditions: read-out: % Ctrl @ 1000 nM
# DYRK2 = DYRK2 (Homo sapiens, UniProt Q92630); assay: Kinase profiling; format: binding; conditions: read-out: % Ctrl @ 1000 nM
# TRKA = TRKA (Homo sapiens, UniProt P04629); assay: Kinase profiling; format: binding; conditions: read-out: % Ctrl @ 1000 nM
# [3] = tested on: F4-80 (surface marker of macrophages); assay: F4-80 IHC test in MC-38 tumor; parameters: species or system mouse; conditions: end of in vivo efficacy trial; vs vehicle group
# Protocol: MC38 tumor tissues were collected at the end of the in vivo efficacy trial. The tumor tissue was then embedded in paraffin. The expression of CD3/CD4/CD8/F4-80 were tested by immunohistochemistry stain.
# MARK2 = MARK2 (Homo sapiens, UniProt Q7KZI7); assay: Kinase profiling; format: binding; conditions: read-out: % Ctrl @ 1000 nM
# YSK4 = YSK4 (Homo sapiens, UniProt Q56UN5); assay: Kinase profiling; format: binding; conditions: read-out: % Ctrl @ 1000 nM
# [4] = molecular target: TYK2 (JH2domain-pseudokinase) (Homo sapiens, UniProt P29597); assay: Kinase profiling; format: binding; conditions: read-out: % Ctrl @ 1000 nM
# TEC = TEC (Homo sapiens, UniProt P42680); assay: Kinase profiling; format: binding; conditions: read-out: % Ctrl @ 1000 nM
# AKT2 = AKT2 (Homo sapiens, UniProt P31751); assay: Kinase profiling; format: binding; conditions: read-out: % Ctrl @ 1000 nM
# ULK1 = ULK1 (Homo sapiens, UniProt O75385); assay: Kinase profiling; format: binding; conditions: read-out: % Ctrl @ 1000 nM
# RET (M918T) = RET (M918T) (Homo sapiens, UniProt P07949, M918T); assay: Kinase profiling; format: binding; conditions: read-out: % Ctrl @ 1000 nM
# NIM1 = molecular target: T2, NIM1 (Homo sapiens, UniProt Q8IY84); assay: Kinase profiling; format: binding; conditions: read-out: % Ctrl @ 1000 nM
# T2 construct: T7 phage fusion (said for most assays); made in house
# TRPM6 = TRPM6 (Homo sapiens, UniProt Q9BX84); assay: Kinase profiling; format: binding; conditions: read-out: % Ctrl @ 1000 nM
# MAP3K15 = MAP3K15 (Homo sapiens, UniProt Q6ZN16); assay: Kinase profiling; format: binding; conditions: read-out: % Ctrl @ 1000 nM
# JNK2 = JNK2 (Homo sapiens, UniProt P45984); assay: Kinase profiling; format: binding; conditions: read-out: % Ctrl @ 1000 nM
# [5] = molecular target: EGFR (L747-S752del, P753S) (Homo sapiens, UniProt P00533, DEL747-752/P753S); assay: Kinase profiling; format: binding; conditions: read-out: % Ctrl @ 1000 nM
# IGF1R = IGF1R (Homo sapiens, UniProt P08069); assay: Kinase profiling; format: binding; conditions: read-out: % Ctrl @ 1000 nM
# HASPIN = HASPIN (Homo sapiens, UniProt Q8TF76); assay: Kinase profiling; format: binding; conditions: read-out: % Ctrl @ 1000 nM
# CDK4-cyclinD1 = CDK4-cyclinD1 (Homo sapiens, UniProt P11802); assay: Kinase profiling; format: binding; conditions: read-out: % Ctrl @ 1000 nM
# HIPK4 = HIPK4 (Homo sapiens, UniProt Q8NE63); assay: Kinase profiling; format: binding; conditions: read-out: % Ctrl @ 1000 nM
# YSK1 = YSK1 (Homo sapiens, UniProt O00506); assay: Kinase profiling; format: binding; conditions: read-out: % Ctrl @ 1000 nM
# YSK1, sequence (O00506 whole entry): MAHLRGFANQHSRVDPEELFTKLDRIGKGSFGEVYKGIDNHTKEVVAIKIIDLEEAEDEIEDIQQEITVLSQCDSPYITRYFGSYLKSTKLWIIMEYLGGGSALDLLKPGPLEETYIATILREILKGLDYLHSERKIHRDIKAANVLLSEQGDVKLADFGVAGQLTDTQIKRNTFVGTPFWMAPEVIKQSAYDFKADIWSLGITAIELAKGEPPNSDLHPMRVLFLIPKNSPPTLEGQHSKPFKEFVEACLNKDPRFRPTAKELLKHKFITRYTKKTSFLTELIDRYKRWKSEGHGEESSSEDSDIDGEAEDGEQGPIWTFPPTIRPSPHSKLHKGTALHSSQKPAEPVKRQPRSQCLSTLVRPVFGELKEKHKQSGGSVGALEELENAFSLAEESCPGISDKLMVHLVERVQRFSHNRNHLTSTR
# MARK2, sequence (Q7KZI7 whole entry): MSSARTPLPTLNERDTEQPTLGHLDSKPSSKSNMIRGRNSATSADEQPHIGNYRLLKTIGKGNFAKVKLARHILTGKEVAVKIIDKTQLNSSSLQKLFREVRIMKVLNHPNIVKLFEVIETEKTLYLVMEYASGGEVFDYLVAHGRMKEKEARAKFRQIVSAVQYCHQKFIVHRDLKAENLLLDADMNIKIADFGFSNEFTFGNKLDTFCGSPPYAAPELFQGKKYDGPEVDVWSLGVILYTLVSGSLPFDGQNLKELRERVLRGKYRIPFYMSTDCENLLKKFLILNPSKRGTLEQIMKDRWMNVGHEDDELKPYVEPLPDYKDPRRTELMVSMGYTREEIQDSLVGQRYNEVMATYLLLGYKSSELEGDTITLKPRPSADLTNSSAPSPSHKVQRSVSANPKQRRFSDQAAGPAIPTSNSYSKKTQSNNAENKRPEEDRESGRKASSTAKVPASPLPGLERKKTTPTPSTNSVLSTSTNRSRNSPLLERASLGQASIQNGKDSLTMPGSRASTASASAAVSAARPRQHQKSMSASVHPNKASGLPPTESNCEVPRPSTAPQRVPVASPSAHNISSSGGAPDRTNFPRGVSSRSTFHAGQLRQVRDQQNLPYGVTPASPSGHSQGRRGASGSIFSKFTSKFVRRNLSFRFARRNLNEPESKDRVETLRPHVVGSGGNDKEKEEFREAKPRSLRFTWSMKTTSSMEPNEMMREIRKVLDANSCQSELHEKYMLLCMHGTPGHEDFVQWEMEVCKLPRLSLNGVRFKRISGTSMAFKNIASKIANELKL
# TRKA, sequence (P04629 33-796): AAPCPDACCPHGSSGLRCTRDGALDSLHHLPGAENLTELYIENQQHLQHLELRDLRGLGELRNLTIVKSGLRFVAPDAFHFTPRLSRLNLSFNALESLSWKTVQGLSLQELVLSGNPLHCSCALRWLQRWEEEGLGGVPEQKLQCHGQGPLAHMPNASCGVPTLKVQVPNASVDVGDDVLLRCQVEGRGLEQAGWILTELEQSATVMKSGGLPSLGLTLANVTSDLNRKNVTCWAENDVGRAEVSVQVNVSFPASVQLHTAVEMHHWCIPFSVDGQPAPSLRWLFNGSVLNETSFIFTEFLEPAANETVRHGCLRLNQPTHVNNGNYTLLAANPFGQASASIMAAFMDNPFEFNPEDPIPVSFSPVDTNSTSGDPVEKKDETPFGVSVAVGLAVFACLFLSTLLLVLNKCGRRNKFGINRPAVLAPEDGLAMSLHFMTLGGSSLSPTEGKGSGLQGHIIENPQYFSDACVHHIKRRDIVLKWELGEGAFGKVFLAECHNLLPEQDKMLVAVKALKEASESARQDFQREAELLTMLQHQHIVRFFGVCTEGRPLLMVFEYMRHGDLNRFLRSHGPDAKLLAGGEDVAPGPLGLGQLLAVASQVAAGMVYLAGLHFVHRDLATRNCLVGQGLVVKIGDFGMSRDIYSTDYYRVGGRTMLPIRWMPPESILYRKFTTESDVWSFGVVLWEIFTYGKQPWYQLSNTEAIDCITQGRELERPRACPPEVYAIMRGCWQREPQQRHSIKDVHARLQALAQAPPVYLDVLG
# AKT2, sequence (P31751 whole entry): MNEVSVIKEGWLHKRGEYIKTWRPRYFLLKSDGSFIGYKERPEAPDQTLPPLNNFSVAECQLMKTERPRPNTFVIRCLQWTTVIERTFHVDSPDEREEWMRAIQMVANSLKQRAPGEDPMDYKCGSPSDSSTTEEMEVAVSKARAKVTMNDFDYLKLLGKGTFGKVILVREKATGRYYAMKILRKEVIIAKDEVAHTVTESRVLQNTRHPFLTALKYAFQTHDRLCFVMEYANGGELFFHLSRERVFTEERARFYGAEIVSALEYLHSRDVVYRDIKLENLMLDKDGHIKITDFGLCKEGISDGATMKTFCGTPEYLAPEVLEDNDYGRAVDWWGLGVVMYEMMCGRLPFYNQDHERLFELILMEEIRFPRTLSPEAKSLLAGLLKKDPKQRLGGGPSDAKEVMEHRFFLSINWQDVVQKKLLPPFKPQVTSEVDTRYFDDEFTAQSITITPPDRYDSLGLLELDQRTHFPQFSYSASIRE
# YSK4, sequence (Q56UN5 whole entry): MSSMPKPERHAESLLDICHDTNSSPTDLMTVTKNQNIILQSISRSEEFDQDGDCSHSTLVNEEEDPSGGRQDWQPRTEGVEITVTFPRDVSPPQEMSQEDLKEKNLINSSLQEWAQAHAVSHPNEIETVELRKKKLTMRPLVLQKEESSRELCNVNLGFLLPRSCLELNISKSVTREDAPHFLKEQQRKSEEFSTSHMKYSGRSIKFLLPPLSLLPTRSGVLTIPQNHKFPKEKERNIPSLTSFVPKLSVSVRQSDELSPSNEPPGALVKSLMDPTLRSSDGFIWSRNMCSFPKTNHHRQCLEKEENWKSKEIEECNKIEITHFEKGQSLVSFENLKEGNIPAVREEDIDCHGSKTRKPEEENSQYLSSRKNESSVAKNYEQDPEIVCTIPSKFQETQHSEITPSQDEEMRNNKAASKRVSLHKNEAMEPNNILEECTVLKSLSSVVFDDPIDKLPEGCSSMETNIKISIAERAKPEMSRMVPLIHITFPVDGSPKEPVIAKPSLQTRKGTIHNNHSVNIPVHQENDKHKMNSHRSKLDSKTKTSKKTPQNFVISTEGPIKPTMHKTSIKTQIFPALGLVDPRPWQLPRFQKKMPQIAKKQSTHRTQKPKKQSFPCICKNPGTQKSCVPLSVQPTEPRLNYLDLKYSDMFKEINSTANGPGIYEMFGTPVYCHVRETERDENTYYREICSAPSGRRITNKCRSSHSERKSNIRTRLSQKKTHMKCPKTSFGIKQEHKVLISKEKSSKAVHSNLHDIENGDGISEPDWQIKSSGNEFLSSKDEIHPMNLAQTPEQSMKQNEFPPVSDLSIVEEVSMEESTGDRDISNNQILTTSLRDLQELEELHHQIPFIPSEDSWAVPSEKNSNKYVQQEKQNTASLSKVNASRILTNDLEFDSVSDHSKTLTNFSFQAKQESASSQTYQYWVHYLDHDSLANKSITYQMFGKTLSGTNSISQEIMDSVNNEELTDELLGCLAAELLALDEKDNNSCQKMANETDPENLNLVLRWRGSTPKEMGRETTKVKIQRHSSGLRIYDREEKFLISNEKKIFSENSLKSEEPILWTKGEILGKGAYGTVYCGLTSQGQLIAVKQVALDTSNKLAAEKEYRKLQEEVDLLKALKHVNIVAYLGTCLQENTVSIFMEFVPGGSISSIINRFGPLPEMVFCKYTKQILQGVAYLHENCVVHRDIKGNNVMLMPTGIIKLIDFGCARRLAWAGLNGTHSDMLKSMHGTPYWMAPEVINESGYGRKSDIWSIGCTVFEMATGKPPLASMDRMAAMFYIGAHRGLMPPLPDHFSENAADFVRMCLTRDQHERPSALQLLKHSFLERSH
# GCN2 (Kin.Dom.2, S808G), sequence (Q9P2K8 590-1001 S808G limits assumed): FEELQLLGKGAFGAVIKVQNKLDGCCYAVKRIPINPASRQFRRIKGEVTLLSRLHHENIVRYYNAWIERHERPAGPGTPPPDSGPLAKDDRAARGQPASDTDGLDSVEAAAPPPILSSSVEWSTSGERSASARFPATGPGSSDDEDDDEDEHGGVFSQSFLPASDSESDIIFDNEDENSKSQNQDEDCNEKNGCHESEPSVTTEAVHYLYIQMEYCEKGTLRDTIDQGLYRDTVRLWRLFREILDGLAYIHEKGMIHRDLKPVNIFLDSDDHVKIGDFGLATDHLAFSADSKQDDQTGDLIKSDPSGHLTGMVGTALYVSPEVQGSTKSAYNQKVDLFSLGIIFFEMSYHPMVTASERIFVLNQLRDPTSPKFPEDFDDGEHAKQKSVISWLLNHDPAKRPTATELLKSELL
# RIPK1, sequence (Q13546 whole entry): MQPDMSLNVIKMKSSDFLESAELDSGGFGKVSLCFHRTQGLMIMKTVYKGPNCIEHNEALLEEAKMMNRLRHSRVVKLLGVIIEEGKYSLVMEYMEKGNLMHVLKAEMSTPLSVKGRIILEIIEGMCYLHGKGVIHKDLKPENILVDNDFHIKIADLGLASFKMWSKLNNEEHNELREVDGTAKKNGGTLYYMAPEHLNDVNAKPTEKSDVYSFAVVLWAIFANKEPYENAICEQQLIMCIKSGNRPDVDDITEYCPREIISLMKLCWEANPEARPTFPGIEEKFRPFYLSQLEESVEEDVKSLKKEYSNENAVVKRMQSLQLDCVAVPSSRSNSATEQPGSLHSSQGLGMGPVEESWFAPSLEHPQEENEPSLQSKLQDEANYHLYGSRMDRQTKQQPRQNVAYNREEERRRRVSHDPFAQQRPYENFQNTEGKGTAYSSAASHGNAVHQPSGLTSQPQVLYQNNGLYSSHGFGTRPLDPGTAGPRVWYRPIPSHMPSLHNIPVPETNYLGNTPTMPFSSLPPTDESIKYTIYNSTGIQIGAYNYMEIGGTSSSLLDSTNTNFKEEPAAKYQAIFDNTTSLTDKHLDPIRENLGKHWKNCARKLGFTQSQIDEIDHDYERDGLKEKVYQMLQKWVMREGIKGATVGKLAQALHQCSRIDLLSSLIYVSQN
smiles,measurement,setting,value
Cc1cc(Oc2cc(NC(=O)C3CC3)ncn2)ccc1NC(=O)Nc1ccc(Cl)c(C(F)(F)F)c1 [CBT-102],remaining activity at 1 µM,CAMK2A,88%
same,remaining activity at 1 µM,TGFBR1,100%
same,remaining activity at 1 µM,RIPK1,95%
same,remaining activity at 1 µM,"GCN2 (Kin.Dom.2, S808G)",100%
same,remaining activity at 1 µM,MEK1,83%
same,remaining activity at 1 µM,PLK1,95%
same,remaining activity at 1 µM,CDC2L5,73%
same,remaining activity at 1 µM,PRKX,93%
same,remaining activity at 1 µM,JNK1,90%
same,remaining activity at 1 µM,DMPK,93%
same,remaining activity at 1 µM,ALK,100%
same,remaining activity at 1 µM,[1],100%
same,remaining activity at 1 µM,FAK,86%
same,remaining activity at 1 µM,STK16,100%
same,remaining activity at 1 µM,CSNK1G1,100%
same,remaining activity at 1 µM,[2],97%
same,remaining activity at 1 µM,PIK4CB,100%
same,remaining activity at 1 µM,DYRK2,89%
same,remaining activity at 1 µM,TRKA,74%
same,F4-80 IHC score (%) in MC-38 tumor tissue,[3],significantly reduced
same,remaining activity at 1 µM,MARK2,76%
same,remaining activity at 1 µM,YSK4,9.6%
same,remaining activity at 1 µM,[4],100%
same,remaining activity at 1 µM,TEC,92%
same,remaining activity at 1 µM,AKT2,100%
same,remaining activity at 1 µM,ULK1,98%
same,remaining activity at 1 µM,RET (M918T),0.1%
same,remaining activity at 1 µM,NIM1,82%
same,remaining activity at 1 µM,TRPM6,99%
same,remaining activity at 1 µM,MAP3K15,99%
same,remaining activity at 1 µM,JNK2,31%
same,remaining activity at 1 µM,[5],85%
same,remaining activity at 1 µM,IGF1R,95%
same,remaining activity at 1 µM,HASPIN,81%
same,remaining activity at 1 µM,CDK4-cyclinD1,99%
same,remaining activity at 1 µM,HIPK4,11%
same,remaining activity at 1 µM,YSK1,100%
